Experimental data as given in patent US11357742B2, “Methods for treating cancer” (X4 Pharmaceuticals, Inc., priority 2015, dated 2022).

How the values were obtained:
[1] = system: 786-0 and A498 RCC xenografts; test: Murine models with human RCC cell line xenografts (tumor size, IHC, IF, flow cytometry); format: in vivo, mice; settings: 786-0 and A498 xenografts
Procedure: With each of the human cell lines, 1×10^7 tumor cells were implanted subcutaneously in the flanks of 36 nude/beige mice and tumors allowed to grow to roughly 7 mm in diameter. […] Therefore, on day 7, the mice were sacrificed and the tumors were measured and immediately excised and divided into three parts. One part of each tumor was paraffin-embedded for dual color immunofluorescence. Another part was mechanically disaggregated and treated with collagenase/DNAse to generate a single cell suspension for flow cytometry. The third part was frozen for future pharmacokinetic analysis. Microscope slides were made from the paraffin-embedded tumor tissue, which were stained with antibodies against CD11b, Gr-1, and FAP. The number of infiltrating CD11b+/Gr-1+ MDSC and FAP+ fibroblasts present in the tumor tissue was then determined by immunofluorescence (IF) as previously described (1).
The disaggregated tumor specimens were analyzed for CD11b+/Gr-1+ MDSC and FAP+ fibroblasts by flow cytometry. The fraction of both populations expressing CXCR4 were also determined. […] One part was disaggregated into single cell suspensions and analyzed by flow cytometry as above for MDSC. […] Finally, a bone marrow (BM) sample was generated by extruding marrow from an excised femur with a syringe filled with saline and analyzed by flow cytometry for MDSC.

[2] = cited from earlier work
[3] = oral; see current product label; cited from earlier work
mir-30a and mir-30c = settings: 786-0 xenograft tumor, after 8 days of treatment
From the text: Data is presented as mir-30a or mir-30c expression relative to the mean control value (left side) and relative HIF-2α RNA expression.

[4] = system: renal cell carcinoma (RCC) xenografts; settings: cited from earlier work
[5] = concurrent administration with sunitinib

Compound | effects on tumor growth ([1]; nude/beige mice, day 7, axitinib 30 mg/kg daily by gavage) | MDSC infiltration of tumors ([1]; CD11b+/Gr-1+ cells) | partition coefficient (n-octanol/water) [2] | effect of food on absorption [3] | mir-30a and mir-30c expression (mir-30a and mir-30c) | development of sunitinib resistance [4, 5] | influx of MDSC [4, 5] | HIF-2 expression ([4]; in vivo)
CNC(=O)c1ccccc1Sc1ccc2c(/C=C/c3ccccn3)n[nH]c2c1 [axitinib, N-methyl-2-[3-((E)-2-pyridin-2-yl-vinyl)-1H-indazol-6-ylsulfanyl]-benzamide] | no | extensive MDSC infiltration | 3.5 | not altered by food | suppressed |  |  | 
CC(C)(C)C[C@H]1N[C@@H](C(=O)NCC[C@H](O)CO)[C@H](c2ccc(F)c(Cl)c2)[C@@]12C(=O)Nc1cc(Cl)c(F)cc12 [MI-319] |  |  |  |  |  | prevented | prevented | suppresses
